Columns and labels:
Format in all cases: in vivo, mice
[1] = system: mouse model of MI by LAD ligation; assay: Heart section scar assessment (Masson-Trichrome) after MI
Method: (§1) Myocardial infarction in adult mice was performed as follows: mice were sedated with isoflurane (Abbott Laboratories) and following tracheal intubation, were artificially ventilated. Lateral thoracotomy at the third intercostal space was performed by blunt dissection of the intercostal muscles following skin incision. Following ligation of the left anterior descending coronary artery, 2 mg/animal/day of
(§2) GA (batch #164F0105; 24992916) or PBS were injected according to the experimental protocol (described in the Results). Following treatment, thoracic wall incisions were sutured with 6.0 non-absorbable silk sutures, and the skin wound closed using a skin adhesive. Mice were then warmed for several minutes until recovery.
Mouse heart tissues were fixed in 4% paraformaldehyde (PFA) and sectioned. For analysis of cardiac regeneration, following myocardial infarction procedure, paraffin sections were cut through the entire ventricle from apex to base into serial sections with intervals of 0.3 mm. Paraffin sections were cut frontally to include base to apex in each section. […] Scar size was quantified in the section containing the papillary muscle region using ImageJ software based on Masson's trichrome staining. Scar size was calculated as scar size relative to total section size.

infarcted hearts [2] = assay: FACS analysis of neutrophils and macrophages in infarcted hearts
Method: Myocardial infarction in adult mice was performed as follows: mice were sedated with isoflurane (Abbott Laboratories) and following tracheal intubation, were artificially ventilated. Lateral thoracotomy at the third intercostal space was performed by blunt dissection of the intercostal muscles following skin incision. Following ligation of the left anterior descending coronary artery, 2 mg/animal/day of GA (batch #164F0105; 24992916) or PBS were injected according to the experimental protocol (described in the Results). Following treatment, thoracic wall incisions were sutured with 6.0 non-absorbable silk sutures, and the skin wound closed using a skin adhesive. Mice were then warmed for several minutes until recovery. Single cell suspensions of hearts harvested at different time point post MI were generated immediately before analysis by flow cytometry, as previously described^21. Briefly, single hearts were minced and digested in collagenase II/Dispase solution in PBS with 1 mM CaCl2 (2 mg/ml collagenase II, 1.2 U/ml Dispase) for 3 rounds of 15 minutes at 37° C., followed by mechanical separation by pippetation. Digested samples were passed through a 40-μm filter, washed, and suspended in FACS buffer (PBS 0.5% BSA, 2 mM EDTA) for staining. Samples were stained with antibodies from Miltenyi biotec:CD45-Viogreen, CD11b-PE, Ly6G-Vioblue, Ly6C-FITC, F4/80-APC, CCR2-APC-Vio770, MHCII-PE-Vio770. 7-AAD was used as a viability marker. Staining and sample analysis were all performed by standard procedure on a LSR-II FACS machine. GA has an established influence on the immune response, especially the T-helper 2 (Th2) lymphocyte population^22-24. To investigate the molecular mechanisms of GA effects, the present inventors sought out to characterize the immune response of infarcted hearts after GA treatment. First, examining the changes in relevant immune populations. For that, infarcted hearts were analyzed by FACS using markers for neutrophils and macrophages. To follow the dynamics of the immune response after MI, injured hearts at 24 hr, 96 hr and 14 days post MI were harvested. […] The effect of GA diminishes after 96 hr, with the expected reduction in neutrophils. […] This trend was recently shown to promote cardiac regeneration^25, and therefore might explain GA regenerative effect.

[3] = system: mouse model of MI by LAD ligation; assay: Echocardiography of heart function after myocardial infarction (LAD ligation)
Method: as §1, §2
Heart function was evaluated by transthoracic echocardiography performed on sedated mice (isoflurane, Abbott Laboratories) using a Vevo 3100 VisualSonics device.
Mice were divided to the following experimental groups: […]
4. Long GA treatment—performing MI followed by GA (2 mg/animal/day) given i.p. from day 0 up to day 14 or until first animal dies. N=5.
Echo measurements were performed at baseline (day 0), day 2, day 14 and day 35 post MI. Histology analysis was performed post mortem.
Short GA treatment—performing MI followed by GA (2 mg/animal/day) administered i.p. from day 0 up to day 14. N=10. […]
In the clinic, MI patients currently reach medical care in a matter of several hours. To find out the relevance and efficacy of delayed administration of GA, the present inventors created MI by LAD ligation and treated animals at the day of injury, 24 or 48 hours post MI.

infarcted hearts [4] = assay: Multiplex cytokine ELISA of infarcted hearts
Method: Myocardial infarction in adult mice was performed as follows: mice were sedated with isoflurane (Abbott Laboratories) and following tracheal intubation, were artificially ventilated. Lateral thoracotomy at the third intercostal space was performed by blunt dissection of the intercostal muscles following skin incision. Following ligation of the left anterior descending coronary artery, 2 mg/animal/day of GA (batch #164F0105; 24992916) or PBS were injected according to the experimental protocol (described in the Results). Following treatment, thoracic wall incisions were sutured with 6.0 non-absorbable silk sutures, and the skin wound closed using a skin adhesive. Mice were then warmed for several minutes until recovery. For native protein extraction, hearts were minced using a mortar and pestle under liquid nitrogen, and the resulting powder was further homogenized using rotor—stator homogenizer with a native extraction buffer (0.5% triton in PBS with protease inhibitor cocktail). Resulting extracts were equilibrated for protein concentration, and subjected to mouse cytokine 16-plex ELISA (#110949MS, Quansys Biosciences, USA) according to manufacturer instructions. To broaden the understanding of the molecular effectors influenced by GA treatment, the cytokine milieu of the GA treated infarcted hearts was analyzed. For that, infarcted hearts were harvested at 24 h, 96 h and 14 days post MI. Native protein lysates were prepared and subjected to multiplex cytokine ELISA. At 24 hr post MI, both IL-6 and IL-10 levels were increased (FIG. 6A). […] Importantly, the levels of IL-6 as well as those of other pro-inflammatory cytokines in GA treated hearts were reduced 14 days post MI (FIG. 6C). These findings might underscore the importance of regulating a transient expression of pro-inflammatory cytokines occurring in a pro-regenerative scenario, similar to what was detected in the GA treated hearts. Another cytokine that was elevated after GA treatment was IL-4 (FIG. 6B). Both IL-10 and IL-4 are considered as anti-inflammatory cytokines that induce Th-2 differentiation, a cell population previously shown to be affected by GA (40-42). […] This chemokine was previously shown to induce IL-6 expression and to have beneficial effect on cardiac remodeling post MI^29. […] Taken together, the differential expression of cytokines in the GA treated infarcted heart might reveal the molecular mechanism that allows GA to modulate the immune response, supporting cardiac regeneration post MI.

Stat3 = assay: Western-blot analysis of pStat3 in hearts post MI; conditions: 4 days after injury (FIG. 7)
Method: as §1, §2
Western blotting was performed with the SDS-PAGE Electrophoresis System. Sample extracts were prepared and transferred to PVDF membranes. The following primary antibodies were used: anti-Gapdh (Sigma, PLA0125, 1:3000), anti-pStat3 (1:1000) Horseradish peroxidase anti-mouse, anti-rabbit or anti-goat (Sigma-Aldrich, 1:2000) were used as a secondary antibody.

glatiramer acetate [GA]
cardiac scarring (Masson-Trichrome stained area relative to total area) ([1]; 35 days after MI, larger group, vs PBS (FIG. 2C)): improved significantly
scar area of the 3 representative treated mice ([1]; 35 d post MI, Masson-Trichrome, vs PBS (FIG. 3A)): smaller scar area
fraction of neutrophils in the infarcted hearts (infarcted hearts [2]; 24 h post MI, vs PBS (FIGS. 5A, B)): decreased
macrophage fraction of immune cells (infarcted hearts [2]; 24 hr post MI, vs PBS (FIGS. 5C, D)): increase
effect on macrophage fraction (infarcted hearts [2]; after 96 hr post MI): diminished
effect on neutrophils (infarcted hearts [2]; after 96 hr post MI): diminishes
fractional shortening (FS), reduction from baseline ([3]; 35 d after MI, GA i.p. 14 d vs PBS (FIG. 1C)): smaller reduction
cardiac function (EF and FS) ([3]; 35 days after MI, larger group, all animals treated by the protocol, vs PBS (FIGS. 2A, B)): improved significantly
EF of the 3 representative treated mice ([3]; 35 d post MI, vs PBS (FIG. 3B)): improved EF
Ejection Fraction (EF) ([3]; 35 d post injury, GA 2 mg/animal/day i.p. day 0 to 14, vs PBS (FIG. 1A)): clear beneficial effect
cardiac function (EF, FS), treatment delayed 24 hours ([3]; treatment started 24 hours post MI, similar levels to treatment at the day of injury (FIGS. 4A-B)): improved cardiac function
cardiac function (EF, FS), treatment delayed 48 hours ([3]; treatment started 48 hours post MI, similar levels to treatment at the day of injury (FIGS. 4A-B)): improved cardiac function
IL-6 level (infarcted hearts [4]; 24 hr post MI (FIG. 6A)): increased
IL-10 level (infarcted hearts [4]; 24 hr post MI (FIG. 6A)): increased
levels of Monocyte Chemoattractant Protein-1 (MCP-1) (infarcted hearts [4]; 96 hr post MI (FIG. 6B)): significant enhancement
IL-6 level (infarcted hearts [4]; 14 days post MI (FIG. 6C)): reduced
levels of other pro-inflammatory cytokines (infarcted hearts [4]; 14 days post MI (FIG. 6C)): reduced
IL-4 level (infarcted hearts [4]; FIG. 6B): elevated
levels of phosphorylated Stat3 (pStat3) (Stat3): increased levels
levels of phosphorylated Stat3 (pStat3) (Stat3; listed as Cop): upregulation
